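Five compound concentrations were applied to cells in 96-well plates for 48 hours; endpoints were derived by simple linear interpolation of the resulting dose-response curve. GI50: concentration for 50% inhibition of growth. TGI denotes the concentration required for complete inhibition of growth.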 Bounds are passed on as bounds.

Some test systems named below: 786-0 renal; A549 NSCLC; COLO 205 colon; EKVX NSCLC; HCT-116 colon; HT29 colon; IGROV1 ovarian; NCI-H522 lung; OVCAR-8 ovarian; RPMI-8226 leukemia.
Experiment in all cases: NCI-60 cell line screen, 48 h

As for `CCCN(CCC)c1ccc(C=O)c(OC)c1`, the GI50 is 29.4 µM with 786-0 renal; 28.3 µM with A549 NSCLC; 22.3 µM in the assay with COLO 205 colon; 16.1 µM in the assay with EKVX NSCLC; 25.5 µM in the assay with HCT-116 colon; 17 µM with HT29 colon. In addition, the GI50 in the assay on IGROV1 ovarian is 32.8 µM; in the assay with NCI-H522 lung, 18.1 µM; with OVCAR-8 ovarian, 27.5 µM; with RPMI-8226 leukemia, 58.6 µM. Moreover, the TGI in the assay with 786-0 renal was above 100 µM; in the assay with A549 NSCLC it was above 100 µM; in the assay with COLO 205 colon, 63.4 µM; in the assay on EKVX NSCLC it was 76.1 µM; with HCT-116 colon, above 100 µM; in the assay with HT29 colon it was 70.8 µM. The TGI with IGROV1 ovarian is above 100 µM; in the assay on NCI-H522 lung it was 67.3 µM; in the assay with OVCAR-8 ovarian, above 100 µM; in the assay with RPMI-8226 leukemia, above 100 µM.

With `[O-]c1c(-c2ccccc2)[se]c(-c2ccccc2)[n+]1-c1ccccc1`, the TGI with 786-0 renal came out at 22.5 µM; in the assay on A549 NSCLC, 35.9 µM; with COLO 205 colon it was 31.3 µM; in the assay with EKVX NSCLC, 35.4 µM; in the assay on HCT-116 colon it was 11.4 µM; in the assay with HT29 colon, 52.9 µM. Also, the TGI with IGROV1 ovarian was 13.6 µM; in the assay on NCI-H522 lung it was 8.42 µM; in the assay with OVCAR-8 ovarian, 13.7 µM; with RPMI-8226 leukemia it was above 100 µM.

For `C/C(=C\c1ccccc1)C(O)S(=O)(=O)O` (centres undefined), the TGI in the assay on 786-0 renal, in the assay on A549 NSCLC, in the assay with COLO 205 colon, in the assay with EKVX NSCLC, in the assay on HCT-116 colon and in the assay on HT29 colon was above 100 µM in each case. For the same molecule, the TGI with IGROV1 ovarian, in the assay on NCI-H522 lung, in the assay with OVCAR-8 ovarian and in the assay on RPMI-8226 leukemia was above 100 µM throughout.

On to `COc1ncnc2c1ncn2C/C(Br)=C(\Br)CCl`, for which the GI50 with 786-0 renal was 3.38 µM; in the assay with A549 NSCLC, 10.8 µM; in the assay on COLO 205 colon, 1.73 µM; in the assay on EKVX NSCLC, 16.3 µM; in the assay on HCT-116 colon, 1.73 µM; in the assay with HT29 colon, 1.63 µM. For the same molecule, the GI50 in the assay on IGROV1 ovarian is 1.77 µM; with NCI-H522 lung, 0.875 µM; in the assay with OVCAR-8 ovarian, 3.01 µM; in the assay with RPMI-8226 leukemia it was 3.19 µM. Also, the TGI was found to be 11.5 µM with 786-0 renal; 25.9 µM in the assay on A549 NSCLC; 3.18 µM in the assay with COLO 205 colon; 29.9 µM in the assay on EKVX NSCLC; 3.49 µM in the assay on HCT-116 colon; 3.71 µM in the assay with HT29 colon. Further, the TGI in the assay with IGROV1 ovarian came out at 4.86 µM; with NCI-H522 lung, 2.25 µM; in the assay with OVCAR-8 ovarian it was 7.84 µM; in the assay with RPMI-8226 leukemia, 16.4 µM.

As to `CCOc1ccccc1N=C(NC(=O)CC)SC`, the GI50 in the assay with 786-0 renal was above 100 µM; in the assay with A549 NSCLC it was above 100 µM; in the assay with EKVX NSCLC, above 100 µM; in the assay with HCT-116 colon it was above 10 µM; with HT29 colon, above 100 µM; with IGROV1 ovarian, above 100 µM. The GI50 was above 100 µM with NCI-H522 lung, above 10 µM in the assay on OVCAR-8 ovarian and above 10 µM with RPMI-8226 leukemia. Besides, the TGI in the assay on 786-0 renal was above 100 µM; with A549 NSCLC, above 100 µM; in the assay on COLO 205 colon, above 10 µM; in the assay on EKVX NSCLC, above 100 µM; in the assay with HCT-116 colon it was above 100 µM; in the assay on HT29 colon it was above 100 µM. Also, the TGI in the assay with IGROV1 ovarian, with NCI-H522 lung, in the assay on OVCAR-8 ovarian and in the assay with RPMI-8226 leukemia was above 100 µM throughout.

As to `CN1C(=O)NC2(O)c3ccccc3C(=O)C12O` (centres undefined), the TGI in the assay on 786-0 renal, in the assay on A549 NSCLC, in the assay on COLO 205 colon, in the assay with EKVX NSCLC, in the assay with HCT-116 colon and with HT29 colon was above 100 µM in each case. The TGI in the assay on IGROV1 ovarian, with NCI-H522 lung, with OVCAR-8 ovarian and in the assay on RPMI-8226 leukemia was above 100 µM each time.

`CCCCn1c(=O)c(/C=C/C(=O)/C=C/c2ccc(O)c(OC)c2)cc2ccc(Cl)cc21`: the GI50 in the assay on 786-0 renal is 1.77 µM; with A549 NSCLC it was 1.72 µM; with COLO 205 colon, 1.72 µM; with EKVX NSCLC it was 2.18 µM; in the assay with HCT-116 colon, 1.52 µM; with HT29 colon it was 0.846 µM. Further, the GI50 was 1.92 µM with IGROV1 ovarian, 1.78 µM in the assay with NCI-H522 lung, 2.47 µM in the assay on OVCAR-8 ovarian and 2.46 µM in the assay on RPMI-8226 leukemia. Moreover, the TGI in the assay on 786-0 renal stood at 3.31 µM; in the assay with A549 NSCLC, 4.84 µM; with COLO 205 colon, 4.83 µM; in the assay with EKVX NSCLC, 4.58 µM; in the assay with HCT-116 colon, 3 µM; in the assay on HT29 colon, 2.57 µM. Also, the TGI in the assay with IGROV1 ovarian worked out at 4.1 µM; in the assay with NCI-H522 lung, 3.86 µM; in the assay on OVCAR-8 ovarian it was 9.49 µM; in the assay on RPMI-8226 leukemia, 7.62 µM.

Regarding `COc1cc2c3c(n(CCCn4cccn4)c(=O)c2cc1OC)-c1cc2c(cc1C3=O)OCO2`, the GI50 in the assay on 786-0 renal is 0.429 µM; with A549 NSCLC, 2.87 µM; in the assay with COLO 205 colon it was 5.25 µM; with EKVX NSCLC, 8.79 µM; in the assay with HCT-116 colon, 1.47 µM; in the assay with HT29 colon, 2.56 µM. Moreover, the GI50 with IGROV1 ovarian was 1.8 µM; in the assay with NCI-H522 lung, 2.07 µM; with OVCAR-8 ovarian, 2.83 µM; in the assay on RPMI-8226 leukemia, 2.44 µM. Besides, the TGI was 2.76 µM in the assay on 786-0 renal; above 100 µM with A549 NSCLC; above 100 µM in the assay with COLO 205 colon; above 53.1 µM in the assay on EKVX NSCLC; 15.9 µM in the assay on HCT-116 colon; 25.4 µM with HT29 colon. In addition, the TGI in the assay with IGROV1 ovarian stood at 29 µM; with NCI-H522 lung it was 63.7 µM; with OVCAR-8 ovarian, 54.7 µM; with RPMI-8226 leukemia, 22.4 µM.

Values taken from PubChem BioAssay (NCI).
